Reference: patent US20240065982A1 (priority 2020, published 2024)

Assay: Clearance of ionizable lipid from the mouse lung following chamber nebulization of mRNA LNP (LC-MS)
Format: in vivo
Method: On the day of dosing the LNP formulations were diluted to 1.2 mg/mL with PBS and 1.25 mL (1.5 mg dose) of these solutions are placed in Aerogen Solo nebulizer units which sit in a housing attached to a mouse chamber of dimensions 9″×4″×5″ (1×w×h) with a carbon filter attached. Six (6) Balb/C mice are dosed in the chamber at a time. An airflow of 1.5 L/min was forced through the nebulizer housing unit and the nebulizer turned on. During nebulization, some of the LNP condensed from the nebulizer and was collected and passed back through the nebulizer. This continued until no condensate was collected. Upon nebulization to dryness, the mice remained in the chamber for an extra 1-2 min until the LNP vapor dissipated. Complete nebulization of the LNP typically took ˜15 min. At each time points of 0.25 h (immediately after nebulization), 1 h, 6 h and 24 h, three (3) animals per formulation were euthanized with a lethal dosage of ketamine/xylazine and the lungs were excised and cut into ˜100 mg sections. These were placed in FastPrep tubes, fast frozen in liquid N2, and stored at […] until LC-MS analysis.
To the lung sections were added 5 volumes of PBS (e.g. to 50 mg of lung added 250 μL of PBS). These were then homogenized in a FastPrep instrument using 3 cycles of 15 sec each, with a speed of 5.0 m/s and were centrifuged at low speed. Spiked lung homogenate standards were prepared for each cationic lipid (103, 101 and 102) using the lung homogenates of mice dosed with PBS. For each cationic lipid, 10 standards were prepared: the highest standard at a concentration of 12,500 ng/mL with serial dilution by ½ down to 24.4 ng/mL. 20 μL of the homogenates (samples and standards) was added to 225 μL of ISS (IPA containing 100 ng/mL 1-B11 internal standard) in 96-well plates. The plates were mixed by pipetting up and down and were centrifuged at 2500 rpm for 15 min. The supernatant from these extractions were analyzed by LC-MS. By comparing the signal obtained for each sample to the appropriate standard curves for each cationic lipid (103, 101 and 102), the ng/mL of cationic lipid in each homogenate was determined. These values were then normalized to the exact mass of lung tissue that was analyzed. For the Non-biodegradable cationic lipid, the resulting average (n=3) ng 103/g of lung values were plotted without any further manipulation. For the Hydrolyzable cationic lipid, the ng/g of lung values at each time point for both 101 and 102 were combined to give the average (n=3) ng cationic lipid/g of lung values.

[1] = 24 h post administration, nebulized mRNA LNP, mice

SMILES	fate of the lipid in the lungs by 24 h, in words [1]	% Cationic Lipid Remaining (Balb/C, mouse, in vivo) [%]	% Cationic Lipid Remaining (Balb/C, mouse, in vivo, 1 h) [%]	% Cationic Lipid Remaining (Balb/C, mouse, in vivo, 6 h) [%]	% Cationic Lipid Remaining (Balb/C, mouse, in vivo, 24 h) [%]	fate of the lipid in the lungs by 24 h, in words (Balb/C, mouse, in vivo, 24 h)
CCCCC/C=C\CCCO[Si](CCCCN(C)CCO)(OCCC/C=C\CCCCC)OCCC/C=C\CCCCC [Example 102]	close to complete lipid hydrolysis					
CCCCC/C=C\CCCC(CCC/C=C\CCCCC)C(CCC/C=C\CCCCC)OC(=O)CCCCN(C)C (stereo not shown) [Example 103]		100	120	90	94	remained in the lungs for the complete 24 h
CCCCC/C=C\CCCO[Si](CCCCN(C)C)(OCCC/C=C\CCCCC)OCCC/C=C\CCCCC [Example 101]	close to complete lipid hydrolysis					
